Measurements reported in patent US11352391B2, “Compositions for inducing urinary voiding and defecation” (Dignify Therapeutics, LLC, priority 2017, dated 2022).
Read-outs that look alike come from different tables or passages of the source. Where a SMILES comes first, the peptide text is derived from it. Where no end group is shown, it is not given here.

Assays:
[1] = target: recombinant hNK1R expressed in CHO cells (Homo sapiens, UniProt P25103); assay: Intracellular calcium mobilization (FLIPR) in CHO-hNK1 cells; assay type: cell-based
Method: (§1) CHO-hNK1 and CHO-hNK2 cells were seeded into black walled clear-bottom 384-well plates) at a density of 10,000 and 15,000 cells per well in 50 μL culture media, respectively, and grown overnight at 37° C. in a humidified CO2-incubator. Cells were washed in washing buffer using the EMBLA 384 instrument, leaving 20 μL of buffer per well after the final aspiration. Cells were then incubated at 37° C. with the cytoplasmic Ca2+ indicator Fluo-4 AM (final concentration 1 μM) in assay buffer (20 mM HEPES, 145 mM NaCl, 5 mM KCl, 5.5 mM glucose, 1 mM MgCl2 and 2 mM CaCl2, pH 7.4, 0.05% Pluronic F-127 and 0.1% BSA) containing 2.5 mM probenecid for […] (cell loading). Cells were then washed 3 times in washing buffer (20 mM HEPES, 145 mM NaCl, 5 mM KCl, 5.5 mM glucose, 1 mM MgCl2 and 2 mM CaCl2, pH 7.4 and 2.5 mM probenecid) using the EMBLA 384 instrument, leaving 30 μL of buffer in each well after the last wash. Loaded cell plates were transferred to the FLIPR machine and calcium responses were monitored as described below. A dual read-out FLIPR protocol was used, allowing for characterization of both agonist and antagonist profiles. For quality control, in each compound plate the signal was monitored by evaluating the responses to the reference standards (NKA and Substance P).
(§2) Concentration response curves of compounds were run in duplicate on two different occasions from the same stock solutions. Test solutions were prepared from 10 mM stock solutions in DMSO and 1 μL of each solution was stamped into V-bottom assay plates containing 49 μL assay buffer. The final concentration of DMSO was 0.5% in each well.

[2] = target: T1, recombinant hNK2R expressed in CHO cells (Homo sapiens, UniProt P21452); assay: Intracellular calcium mobilization (FLIPR) in CHO-hNK2 cells; assay type: cell-based; conditions: for hNK2 selectivity ratio: ratio of EC50s hNK1R/hNK2R
T1 sequence (P21452 1-398): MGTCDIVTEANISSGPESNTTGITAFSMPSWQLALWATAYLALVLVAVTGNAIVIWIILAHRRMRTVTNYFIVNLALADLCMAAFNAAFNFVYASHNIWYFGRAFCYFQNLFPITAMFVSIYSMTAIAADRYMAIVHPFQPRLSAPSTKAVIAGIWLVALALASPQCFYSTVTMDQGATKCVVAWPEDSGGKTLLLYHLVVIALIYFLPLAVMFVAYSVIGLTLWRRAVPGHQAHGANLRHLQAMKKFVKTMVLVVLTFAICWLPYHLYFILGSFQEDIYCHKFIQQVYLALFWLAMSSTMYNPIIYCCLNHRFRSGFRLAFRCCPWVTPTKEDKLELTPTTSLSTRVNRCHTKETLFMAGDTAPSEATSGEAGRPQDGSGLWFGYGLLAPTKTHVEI
Method: as §1, §2

[3] = Saline solubility of heptapeptides; assay type: physicochemical
Method: Heptapeptides A-K shown below in Table 1 (SEQ ID NOs: 1-11) were synthesized according to standard Fmoc-mediated solid-phase techniques and purified under typical C18 reverse-phase conditions.
Compounds D-K were considered to be insoluble in saline (<1 mg/mL).

[4] = target: human NK1 Receptor (hNK1R) (Homo sapiens, UniProt P25103); assay: [3H]-septide radioligand competition binding to human recombinant NK1Rs (CHO-hNK1 membranes)
Method: (§3) After removal of the supernatant the cell pellet was washed and collected by re-suspension in PBS and centrifugation.
(§4) Frozen pellets were thawed and homogenized in 10 volumes (w/v) of membrane preparation buffer (50 mM HEPES pH 7.4, 1 mM EDTA, 50 μg/mL bacitracin and protease inhibitors) using a Polytron Ultraturrax (twice for 15 s per cycle). […] Protein concentration was determined using BioRad Protein Assay (Milan, Italy) with a BSA standard curve.

[5] = target: T2, human NK2 Receptor (hNK2R) (Homo sapiens, UniProt P21452); assay: [125I]-NKA radioligand competition binding to human recombinant NK2Rs (CHO-hNK2 membranes); conditions: for hNK2 selectivity ratio: ratio of Kis hNK1R/hNK2R
T2 sequence (P21452 1-398): T1 sequence (P21452 1-398)
Method: as §3, §4

[6] = Pharmacokinetics in rat plasma after cassette IV bolus dosing; conditions: Sprague-Dawley, in vivo
Method: The concentrations of compounds (SEQ ID NOS: 1-11) were measured in rat plasma after intravenous (IV) bolus dosing to determine pharmacokinetic profiles of individual compounds.
Animal preparation: In vivo studies were performed in anesthetized adult Sprague Dawley rats. Rats were anesthetized with urethane (1.2-1.4 g/kg subcutaneous injection). Surgical procedures were then performed with the addition of isoflurane anesthesia (0.05-1.5% in 02) as needed. A venous cannula was inserted into the jugular vein for intravenous (IV) administration of compounds.
In vivo dosing and plasma sampling: Compounds were divided into two groups (soluble and insoluble). Each group was dosed as a cassette in which four compounds (100 μg/kg each compound) were combined into a single IV bolus injection to anesthetized adult Sprague-Dawley rats. Soluble compounds were dissolved in saline. Insoluble compounds were dissolved in a 10% ethanol/saline solution. Rats were cassette dosed based on weight using 0.1 mg/mL solutions of individual compounds. Blood samples (700 μL) were collected using a carotid artery cannula into EDTA tubes containing ascorbic acid (final concentration 1%), and plasma was isolated.
Bioanalytical assay: A reversed-phase HPLC with Turbo Ion Spray MS/MS detection method was developed for bioanalysis. Mass spec transition and settings were individually optimized for each compound and then compounds were cassetted for HPLC method development and optimization. [^13C9; ^15N] [Lys5,MeLeu9,Nle10]-NKA(4-10) was used as an internal standard (IS). Analyte-to-IS peak area ratios for individual compounds were used to create linear calibration curves (1-20 ng/mL) using 1/×2 weighted least-squares regression analysis for evaluation of method linearity, precision and accuracy. For plasma concentration measurements, plasma samples were spiked with IS, processed by extraction, and analyzed using LC-MS/MS. Positive (M+H)+ ions for individual compounds and IS were monitored in MRM mode.

anesthetized dog = assay: Colorectal pressure manometry in anesthetized dog; assay type: in vivo
Method: Animal preparation: Naïve beagle dogs were fasted for 12-24 hours and received a warm water enema the night prior to, and the morning of, the experiment to clear the rectum and lower colon of feces. The day of the experiment, a 20 gauge IV catheter (Terumo Surflo) was placed in the cephalic vein for anesthetic induction (propofol, 10 mg/kg; IV) and delivery of IV fluids (5-10 ml/kg/hr) and compounds. The sedated dog was intubated with a 5-6 Fr tracheal tube and was maintained on 2-3% isoflurane via a ventilator (15-25 breaths/min; tidal volume […]) for the remainder of the experiment.
Bowel contractility: For colorectal pressure manometry, an ˜3 inch balloon catheter was inserted into the rectum and secured to the tail with tape. This catheter was connected via a three-way stopcock to a pressure transducer (UTAH MEDICAL PRODUCTS; DelTran II) for pressure recording. Data were recorded using PowerLab/8SP acquisition system using LabChart software (version 7.3.7; ADINSTRUMENTS, Australia). Arterial pressure, ECG, temperature and blood oxygen saturation (spO2) were monitored throughout the experiment (MEDTRONIC LIFEPAK12). Dogs were recovered in a quiet room under veterinary supervision.

[7] = calcium mobilization, CHO-hNK1 cells, read-out: hNK1 EC50
[8] = calcium mobilization, CHO-hNK2 cells, read-out: hNK2 EC50
[9] = displacement of 5.0 nM [3H]-septide, CHO-hNK1 membranes, read-out: hNK1 binding Ki
[10] = displacement of 0.1 nM [125I]-NKA, CHO-hNK2 membranes, read-out: hNK2 binding Ki

recombinant hNK1R expressed in CHO cells, sequence (P25103 whole entry): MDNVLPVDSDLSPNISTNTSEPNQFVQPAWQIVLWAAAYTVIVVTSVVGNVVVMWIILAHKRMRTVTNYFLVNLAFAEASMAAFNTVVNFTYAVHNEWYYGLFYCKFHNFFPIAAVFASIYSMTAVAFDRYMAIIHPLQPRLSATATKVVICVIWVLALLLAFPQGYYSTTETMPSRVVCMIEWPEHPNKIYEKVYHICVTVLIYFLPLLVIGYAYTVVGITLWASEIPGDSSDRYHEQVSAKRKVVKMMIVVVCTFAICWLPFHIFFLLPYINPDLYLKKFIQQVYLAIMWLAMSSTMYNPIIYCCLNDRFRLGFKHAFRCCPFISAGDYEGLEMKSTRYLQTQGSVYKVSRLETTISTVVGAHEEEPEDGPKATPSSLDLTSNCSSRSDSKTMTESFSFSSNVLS
human NK1 Receptor (hNK1R), sequence (P25103 whole entry): as above

Compound | EC50 [1, 7] | EC50 [2, 8] | solubility [3] | Ki [4, 9] | Ki [5, 10] | hNK2 selectivity ratio [5] | hNK2 selectivity ratio [2] | half-life ([6]; iv) | Ki [4] | Ki [5] | EC50 [1] | EC50 [2] | level at 10 min ([6]; 100 ug/kg, cassette IV bolus 100 μg/kg, by 10 min post-dose, read-out: plasma concentration) | half-life ([6]; cassette IV bolus, 100 μg/kg each compound, read-out: plasma t1/2) | duration of colorectal pressure response (anesthetized dog; IV bolus (B and E 3 μg/kg; G 3, 30 and 66 ug/kg)) | onset of increase in colorectal pressure (anesthetized dog; IV bolus (E 3 μg/kg; G 3, 30 and 66 ug/kg))
CSCC[C@H](NC(=O)[C@H](CC(C)C)NC(=O)CNC(=O)[C@@H](NC(=O)[C@H](Cc1ccccc1)NC(=O)[C@H](CCCCN)NC(=O)[C@@H](N)CC(=O)O)C(C)C)C(N)=O [D, Asp-Lys-Phe-Val-Gly-Leu-Met-NH2] | 0.41 nM | 0.09 nM | < 1000 µg/mL |  |  |  |  |  |  |  |  |  |  |  |  | 
CCCC[C@H](NC(=O)[C@H](CC(C)C)NC(=O)CCNC(=O)[C@@H](NC(=O)[C@H](Cc1ccccc1)NC(=O)[C@H](CCCNC(=N)N)NC(=O)[C@@H](N)CC(=O)O)C(C)C)C(N)=O [K, Asp-Arg-Phe-Val-(β-Ala)-Leu-Nle-NH2] (HELM PEPTIDE1{D.R.F.V.[bAla].L.[Nle].[am]}$$$$V2.0; N-terminus assumed) | 29.5 nM | 1.16 nM | < 1000 µg/mL | 1200 nM | 6.85 nM | 175.59 | 25 | 3.3 to 4.7 min |  |  |  |  |  |  |  | 
DRFVGLM-NH2 [H, Asp-Arg-Phe-Val-Gly-Leu-Met-NH2] | 0.16 nM | 0.19 nM | < 1000 µg/mL |  |  | 27.10 | 0.8 |  | 8.32 nM | 0.31 nM |  |  |  |  |  | 
CSCC[C@H](NC(=O)[C@H](CC(C)C)N(C)C(=O)CNC(=O)[C@@H](NC(=O)[C@H](Cc1ccccc1)NC(=O)[C@H](CCCCN)NC(=O)[C@@H](N)CC(=O)O)C(C)C)C(N)=O [A, Asp-Lys-Phe-Val-Gly-(NMe-Leu)-Met-NH2] |  |  | > 20000 µg/mL |  |  | 248.89 | 7 |  | 50.1 nM | 0.2 nM | 0.95 nM | 0.14 nM | < 1 ng/mL | 0.2 to 1.2 min |  | 
CSCC[C@H](NC(=O)[C@H](CC(C)C)N(C)C(=O)CNC(=O)[C@@H](NC(=O)[C@H](Cc1ccccc1)NC(=O)[C@H](CCCNC(=N)N)NC(=O)[C@@H](N)CC(=O)O)C(C)C)C(N)=O [C, Asp-Arg-Phe-Val-Gly-(NMe-Leu)-Met-NH2] (HELM PEPTIDE1{D.R.F.V.G.[meL].M.[am]}$$$$V2.0; N-terminus assumed) | 0.3 nM | 0.16 nM | > 20000 µg/mL | 20.9 nM | 0.12 nM | 167.49 | 2 |  |  |  |  |  |  |  |  | 
CCCC[C@H](NC(=O)[C@H](CC(C)C)NC(=O)CNC(=O)[C@@H](NC(=O)[C@H](Cc1ccccc1)NC(=O)[C@H](CCCNC(=N)N)NC(=O)[C@@H](N)CC(=O)O)C(C)C)C(N)=O [J, Asp-Arg-Phe-Val-Gly-Leu-Nle-NH2] (HELM PEPTIDE1{D.R.F.V.G.L.[Nle].[am]}$$$$V2.0; N-terminus assumed) | 1.71 nM | 0.2 nM | < 1000 µg/mL |  |  | 72.53 | 9 |  | 126 nM | 1.74 nM |  |  |  |  |  | 
CSCC[C@H](NC(=O)[C@H](CC(C)C)NC(=O)CCNC(=O)[C@@H](NC(=O)[C@H](Cc1ccccc1)NC(=O)[C@H](CCCNC(=N)N)NC(=O)[C@@H](N)CC(=O)O)C(C)C)C(N)=O [I, Asp-Arg-Phe-Val-(β-Ala)-Leu-Met-NH2] (HELM PEPTIDE1{D.R.F.V.[bAla].L.M.[am]}$$$$V2.0; N-terminus assumed) | 1.83 nM | 0.15 nM | < 1000 µg/mL | 95.5 nM | 0.88 nM | 108.27 | 12 |  |  |  |  |  |  |  |  | 
CSCC[C@H](NC(=O)[C@H](CC(C)C)NC(=O)CCNC(=O)[C@@H](NC(=O)[C@H](Cc1ccccc1)NC(=O)[C@H](CCCCN)NC(=O)[C@@H](N)CC(=O)O)C(C)C)C(N)=O [Compound E, Asp-Lys-Phe-Val-(β-Ala)-Leu-Met-NH2] (HELM PEPTIDE1{D.K.F.V.[bAla].L.M.[am]}$$$$V2.0; N-terminus assumed) | 6.31 nM | 0.18 nM | < 1000 µg/mL | 257 nM | 2.11 nM | 122.04 | 36 | 3.3 to 4.7 min |  |  |  |  |  |  | approximately 4 minutes | ≤ 1 min
CCCC[C@H](NC(=O)[C@H](CC(C)C)NC(=O)CNC(=O)[C@@H](NC(=O)[C@H](Cc1ccccc1)NC(=O)[C@H](CCCCN)NC(=O)[C@@H](N)CC(=O)O)C(C)C)C(N)=O [F, Asp-Lys-Phe-Val-Gly-Leu-Nle-NH2] | 2.36 nM | 0.38 nM | < 1000 µg/mL |  |  | 81.47 | 6 |  | 224 nM | 2.75 nM |  |  |  |  |  | 
